Data set [1] is described as follows: Cellular permeability measurements, bidirectional Caco-2 assay. The settings on record: human, Caco-2, pH 7.4.
The next data set has as its target T1, STING HAQ-variant (Homo sapiens, UniProt Q86WV6, G230A/H232R/R293Q/R71H).
T1 construct: parental THP1-Blue™ ISG cell lines (which express endogenously HAQ); host or cells: THP1-Blue ISG (parental, endogenous HAQ) or STING-KO clone re-transduced with HAQ (MSCV-ires-GFP-Blasti)
The experiment in a line: IRF-inducible SEAP reporter assay in THP1-Blue ISG cells, STING HAQ-variant. Particulars: STING HAQ-variant (parental or re-introduced), 24 hours incubation. The data set is classed as cell-based. In short, it runs like this:
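THP1-Blue ISG cells expressing STING HAQ, either endogenously (parental) or re-introduced after CRISPR knockout, were seeded at 10000 cells/well. They received 8-point compound dilutions (0.5% DMSO final) for 24 hours at 37° C. IRF-driven SEAP was read with Quanti-Blue at OD 620 nm after 30 minutes, and EC50 came from four-parameter fits.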
(In general: A reporter such as luciferase makes a cellular process visible.)

Data set [2] has as its system Human STING (hSTING, residues 155-341). In words: Interaction with hSTING as determined by Differential Scanning Fluorimetry (DSF). The data set is classed as binding. Particulars: 100 μM test compounds, 5 μM target protein. In short, it runs like this:
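Thermal shift of hSTING (residues 155-341, 5 μM) with test compounds at 100 μM in 20 mM Tris, 150 mM NaCl, pH 7.5, using 5× SYPRO Orange. Ramped 25 to 95 °C at 0.5 °C per cycle (15 s/cycle) by real-time PCR fluorescence. Tm from duplicate melting curves, averaged.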
A general note: In DSF a fluorescence change marks the thermal transition of the protein.

Data set [3] can be described thus: Solubility measurements (HTS) at pH 6.8. It is filed as physicochemical. Particulars: kinetic from dmso stock; aqueous McIlvaine buffer pH 6.8, 24 h at room temperature, from 10 mM DMSO stock; read-out: Soblubility. The method, then:
Aqueous solubilities were determined from 10 mM stock solutions of the compounds in DMSO diluted to a final concentration of 250 μM with aqueous McIlvaine buffer at pH 6.8, or with acetonitrile/water (1:1) as a reference. Samples were shaken for 24 h at room temperature in 96-well plates (Whatman Uniplate® 96 wells, 750 μL, polypropylene, round bottom). The plate was then centrifuged at 3,000 rpm for 2 min. 250 μL of each sample were transferred to a Millipore MultiScreenHTS filter plate with a polycarbonate membrane, pore size 0.45 μm. Filtrates were collected by centrifugation at 3,000 rpm for 2 min. The dissolved concentrations were determined by UPLC/UV (Ultra-Performance Liquid Chromatography/ultraviolet) on a Waters ACQUITY UPLC® SQD system equipped with a Waters ACQUITY UPLC® BEH 2.1×50 mm C18 column, particle size 1.7 μm, using a short gradient with water/0.1% formic acid as solvent A and acetonitrile/0.1% formic acid as solvent B (5 to 95% B with 1.7 min total cycle time). Compounds signals were measured with a photodiode array UV detector operated at 254 nm. Solubilities were determined with a one point calibration by comparing peak areas relative to the reference standard using Waters Empower software.

In the next data set the target is T2, STING H232R-variant (Homo sapiens, UniProt Q86WV6, H232R).
T2 construct: expressed in transfected cells; host or cells: THP1-Blue ISG hSTING KO clone, retroviral MSCV-ires-GFP-Blasti
In words: IRF-inducible SEAP reporter assay in THP1-Blue ISG cells, STING H232R-variant. It is filed as cell-based. Particulars: STING H232R-variant (WT), 24 hours incubation. In short, it runs like this:
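THP1-Blue ISG cells with endogenous STING deleted by CRISPR and retrovirally re-expressing human STING H232R; 8-point compound dilutions, 0.5% DMSO final, 24 h at 37 °C. SEAP read by Quanti-Blue, 30 min, OD 620 nm; EC50 and Hill slope from four-parameter fit.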

Another data set can be described thus: in vitro. Particulars: human, Caco-2, pH 7.4.
A further data set has as its target T3, STING AQ-variant (Homo sapiens, UniProt Q86WV6, G230A/H232R/R293Q).
T3 construct: expressed in transfected cells; host or cells: THP1-Blue ISG hSTING KO clone, retroviral MSCV-ires-GFP-Blasti
In words: IRF-inducible SEAP reporter assay in THP1-Blue ISG cells, STING AQ-variant. It is filed as cell-based. The settings on record: 24 hours incubation. A digest of the protocol: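 THP1-Blue ISG cells with endogenous STING knocked out by CRISPR and re-expressing the human STING AQ variant; compounds in 8-point dilution, final DMSO 0.5%, 24 h at 37 °C. SEAP read after 30 min with Quanti-Blue as OD 620 nm; EC50 and Hill slope from four-parameter fits.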

A further data set deals with T4, STING R232H-variant (Homo sapiens, UniProt Q86WV6).
T4 construct: expressed in transfected cells; host or cells: THP1-Blue ISG hSTING KO clone, retroviral MSCV-ires-GFP-Blasti
In words: IRF-inducible SEAP reporter assay in THP1-Blue ISG cells, STING R232H-variant. The data set is classed as cell-based. The settings on record: 24 hours incubation. In short, it runs like this:
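THP1-Blue ISG cells, endogenous STING knocked out by CRISPR and re-expressing hSTING R232H, with IRF-inducible SEAP reporter. Treated 24 h at 37 °C with 8-point compound dilutions (0.5% DMSO final); SEAP read by Quanti-Blue OD 620 nm after 30 min. EC50 from four-parameter fit.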

In a further data set the target is T5, STING R293Q-variant (Homo sapiens, UniProt Q86WV6, H232R/R293Q).
T5 construct: expressed in transfected cells; host or cells: THP1-Blue ISG hSTING KO clone, retroviral MSCV-ires-GFP-Blasti
The experiment in a line: IRF-inducible SEAP reporter assay in THP1-Blue ISG cells, STING R293Q-variant. The settings on record: 24 hours incubation. The data set is classed as cell-based. In short, it runs like this:
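THP1-Blue ISG cells with endogenous STING knocked out (CRISPR) and retrovirally re-expressing human STING R293Q; 10000 cells/well, compound 24 h at 37 °C, 0.5% DMSO final. SEAP read by Quanti-Blue (30 min, OD 620 nm); EC50 and Hill slope from 8-point four-parameter fit.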

pEC50: −log10 of the molar value. In brackets after ≈: the same amount, converted by molar mass.

We go through 10 compounds from US12065427B2, “Heterocyclic compounds capable of activating STING” (BOEHRINGER INGELHEIM INTERNATIONAL GMBH, priority 2021, dated 2024).

By efflux ratio is commonly meant the permeability from basolateral to apical divided by that in the opposite direction, in the common usage. In general, pEC50 refers to −log10 of the EC50, conventionally taken in molar units. The term Papp A→B denotes how fast a substance crosses the layer from the apical side.

T2 sequence (Q86WV6 whole entry H232R): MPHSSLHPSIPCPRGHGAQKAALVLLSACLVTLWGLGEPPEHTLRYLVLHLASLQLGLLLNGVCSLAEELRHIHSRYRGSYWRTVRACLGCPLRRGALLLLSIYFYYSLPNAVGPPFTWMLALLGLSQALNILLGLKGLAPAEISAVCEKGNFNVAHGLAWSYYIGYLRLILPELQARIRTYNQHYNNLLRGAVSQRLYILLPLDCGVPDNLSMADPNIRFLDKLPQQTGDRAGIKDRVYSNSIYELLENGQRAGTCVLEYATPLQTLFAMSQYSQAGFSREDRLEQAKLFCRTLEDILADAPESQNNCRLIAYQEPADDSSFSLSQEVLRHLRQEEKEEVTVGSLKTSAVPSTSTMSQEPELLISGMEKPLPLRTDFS
T4 sequence (Q86WV6 whole entry, stated change not applied): as the sequence (Q86WV6 whole entry H232R) above, with R232H counted along it
T5 sequence (Q86WV6 whole entry H232R/R293Q): as the sequence (Q86WV6 whole entry H232R) above, with R293Q counted along it
T3 sequence (Q86WV6 whole entry G230A/H232R/R293Q): as the sequence (Q86WV6 whole entry H232R) above, with G230A, R293Q counted along it
T1 sequence (Q86WV6 whole entry R71H/G230A/H232R/R293Q): as the sequence (Q86WV6 whole entry H232R) above, with R71H, G230A, R293Q counted along it

As for `Cc1cccc2c(-c3cccc4nn(C)cc34)nn(-c3ccc(N4CC5(COC5)C4)nc3)c12` [compound 3, 2′,7-dimethyl-1-(6-{2-oxa-6-azaspiro[3.3]heptan-6-yl}pyridin-3-yl)-1H,2′H-3,4′-biindazole], the efflux ratio at 10 μM in data set [1] stood at 0.6. Besides, the pEC50 at STING HAQ-variant is 5.52. In data set [2], the “thermal shift (ΔTm)” value worked out at 20 K.
Turning to `Cc1cccc2c(-c3cccc4nn(C)cc34)nn(-c3ccc(N4CCC(C(=O)O)CC4)nc3)c12` [Example #57, 1-(5-(2′,7-dimethyl-1H,2′H-[3,4′-biindazol]-1-yl)pyridin-2-yl)piperidine-4-carboxylic acid], in [3], the solubility kinetic at 24 h was 80 µg/mL (≈ 171 µM). The pEC50 was 6.15 on STING HAQ-variant; 6.70 at STING H232R-variant; 6.52 at STING AQ-variant; 6.70 on STING R232H-variant; 6.22 on STING R293Q-variant. Further, the “thermal shift (ΔTm)” value in [2] turned out to be 17 K. Further, in “in vitro”, the Papp A→B at 10 μM worked out at 15 ×10⁻⁶ cm/s. The efflux ratio at 10 μM in the data set “in vitro” worked out at 1.2.
`Cn1cc2c(-c3nn(-c4ccc(N5CC6C(C5)C6C(=O)O)nc4)c4c(Cl)cccc34)cccc2n1` (stereo not drawn) [compound 26, 3-(5-{7-chloro-2′-methyl-1H,2′H-[3,4′-biindazol]-1-yl}pyridin-2-yl)-3-azabicy-clo[3.1.0]hexane-6-carbox-ylic acid]: the solubility kinetic at 24 h in data set [3] came to 60 µg/mL (≈ 124 µM). Besides, the pEC50 at STING HAQ-variant is 6.05; at STING H232R-variant, 6.70; at STING AQ-variant, 6.15; on STING R232H-variant, 6.70; on STING R293Q-variant, 6.22.
Take `Cc1cccc2c(-c3cccc4c3OCO4)nn(-c3ccc(N4CC5C(C4)C5C(=O)O)nc3)c12` (stereo not drawn) [compound 30, 3-(5-[3-(2H-1,3-benzodi-oxol-4-yl)-7-methyl-1H-in-dazol-1-yl]pyridin-2-yl}-3-azabicyclo[3.1.0]hexane-6-carboxylic acid]: in [3], the solubility kinetic at 24 h turned out to be 42 µg/mL (≈ 92.4 µM). Moreover, on STING HAQ-variant, the pEC50 is 5.21. Moreover, the “thermal shift (ΔTm)” value in [2] was 20 K. Also, in the data set “in vitro”, the Papp A→B at 10 μM turned out to be 14 ×10⁻⁶ cm/s and the efflux ratio at 10 μM amounted to 0.9.
In the case of `Cn1cc2c(-c3nn(-c4ccc(N5CCC(C(=O)O)CC5)nc4)c4c(C(F)(F)F)cccc34)cccc2n1` [Example #67, 1-{5-[2′-methyl-7-(trifluo-romethyl)-1H,2′H-[3,4′-biindazol]-1-yl]pyridin-2-yl}piperidine-4-carboxylic acid], the solubility kinetic at 24 h in data set [3] came to 82 µg/mL (≈ 158 µM). The pEC50 was 5.66 on STING HAQ-variant; 6.15 at STING H232R-variant; 5.64 at STING AQ-variant; 6.10 on STING R232H-variant; 5.68 on STING R293Q-variant. In data set [2], the “thermal shift (ΔTm)” value was 23 K. This compound showed a Papp A→B at 10 μM in “in vitro” of 16 ×10⁻⁶ cm/s. Also, the efflux ratio at 10 μM in “in vitro” was found to be 1.2.
In the case of `Cc1cc(C)c2c(c1)c(-c1cccc3nn(C)cc13)nn2-c1ccc(N2CC3C(C2)C3C(=O)O)nc1` (stereo not drawn) [compound 69, 3-(5-{2′,5,7-trimethyl-1H,2′H-[3,4′-biindazol]-1-yl}pyridin-2-yl)-3-azabicy-clo[3.1.0]hexane-6-car-boxylic acid], in [3], the solubility kinetic at 24 h was determined as 70 µg/mL (≈ 146 µM). In addition, the pEC50 on STING HAQ-variant was 5.85; at STING H232R-variant, 6.52; on STING AQ-variant, 6.15; on STING R232H-variant it was 6.52; at STING R293Q-variant, 6.15. The compound further registered a Papp A→B at 10 μM in “in vitro” of 14 ×10⁻⁶ cm/s. The efflux ratio at 10 μM in “in vitro” amounted to 1.
Regarding `Cc1cccc2c(-c3cccc4cnc(N(C)C)cc34)nn(-c3ccc(N4CCC(C(=O)O)CC4)nc3)c12` [Example #63, 1-(5-{3-[3-(dimethyla-mino)isoquinolin-5-yl]-7-methyl-1H-indazol-1-yl}pyridin-2-yl)piperidine-4-carboxylic acid], in [3], the solubility kinetic at 24 h is 75 µg/mL (≈ 148 µM). Also, the pEC50 on STING HAQ-variant is 5.31. The “thermal shift (ΔTm)” value in data set [2] is on record as 19 K. In addition, in “in vitro”, the Papp A→B at 10 μM is 19 ×10⁻⁶ cm/s and the efflux ratio at 10 μM worked out at 0.6.
Take `Cc1cccc2c(-c3cccc4nn(C)cc34)nn(-c3ccc(N4CC5C(C4)C5C(=O)O)nc3)c12` (stereo not drawn) [Example #59, 3-(5-{2′,7-dimethyl-1H,2′H-[3,4′-biindazol]-1-yl}pyridin-2-yl)-3-azabicy-clo[3.1.0]hexane-6-car-boxylic acid]: the solubility kinetic at 24 h in data set [3] came to 66 µg/mL (≈ 142 µM). The pEC50 at STING HAQ-variant was 6.70; at STING H232R-variant it was 7.00; on STING AQ-variant, 7.00; at STING R232H-variant, 7.00; at STING R293Q-variant, 6.70. Moreover, the “thermal shift (ΔTm)” value in data set [2] was found to be 21 K. The same compound came in with a Papp A→B at 10 μM in the data set “in vitro” of 11 ×10⁻⁶ cm/s. The efflux ratio at 10 μM in “in vitro” is 2.5.
Take `COc1cccc2c(-c3cccc4nn(C)cc34)nn(-c3ccc(N4CC5C(C4)C5C(=O)O)nc3)c12` (stereo not drawn) [compound 29, 3-(5-{7-methoxy-2′-methyl-1H,2′H-[3,4′-biindazol]-1-yl}pyridin-2-yl)-3-azabicyclo[3.1.0]hex-ane-6-carboxylic acid]: the solubility kinetic at 24 h in [3] turned out to be 63 µg/mL (≈ 131 µM). For the same compound, the pEC50 at STING HAQ-variant was 6.10; on STING H232R-variant, 6.70; on STING AQ-variant, 6.15; on STING R232H-variant, 6.22; at STING R293Q-variant, 6.22. Moreover, the “thermal shift (ΔTm)” value in data set [2] is reported as 22 K.
On to `Cc1cccc2c(-c3cccc4cnccc34)nn(-c3ccc(N4CCC(C(=O)O)CC4)nc3)c12` [compound 62, 1-{5-[3-(isoquinolin-5-yl)-7-methyl-1H-indazol-1-yl]pyridin-2-yl}piperidine-4-carboxylic acid], for which, in [3], the solubility kinetic at 24 h was 49 µg/mL (≈ 106 µM). For the same compound, the pEC50 on STING HAQ-variant is 5.51. The “thermal shift (ΔTm)” value in data set [2] is on record as 20 K. Besides, in the data set “in vitro”, the Papp A→B at 10 μM is 11 ×10⁻⁶ cm/s and the efflux ratio at 10 μM was 1.2.
